The source made the active and inactive calls. No cut-off for these calls is given here.
Key:
Melanocyte [1] = experiment: Anti-melanogenic activity in wild type zebrafish embryo melanocytes assessed as decrease in pigmentation at 25 ug/ml treated for 72 hrs post fertilization starting from 6 to 24 hrs post fertilization; format: functional, cell-based; details: Danio rerio
Melanocyte [2] = experiment: Cytotoxicity against wild type zebrafish embryo melanocytes assessed as size of melanocyte at to 25 ug/ml treated for 72 hrs post fertilization starting from 6 to 24 hrs post fertilization; format: cell-based, Danio rerio
Melanocyte [3] = experiment: Cytotoxicity against wild type zebrafish embryo melanocytes assessed as number of melanocyte at 25 ug/ml treated for 72 hrs post fertilization starting from 6 to 24 hrs post fertilization; format: cell-based, Danio rerio
Danio rerio [4] = species: Danio rerio; experiment: Toxicity in wild type zebrafish embryos assessed as normal embryo at 15 ug/ml treated for 96 hrs post fertilization starting from 6 hrs post fertilization by inverted microscopic analysis relative to control; format: organism-based; details: in vivo
Danio rerio [5] = species: Danio rerio; experiment: Toxicity in wild type zebrafish embryos assessed as growth retardation at 50 ug/ml treated for 96 hrs post fertilization starting from 6 hrs post fertilization by inverted microscopic analysis relative to control; format: organism-based; details: in vivo
Danio rerio [6] = species: Danio rerio; experiment: Toxicity in wild type zebrafish embryos assessed as growth retardation at 15 ug/ml treated for 96 hrs post fertilization starting from 6 hrs post fertilization by inverted microscopic analysis relative to control; format: organism-based; details: in vivo
Danio rerio [7] = species: Danio rerio; experiment: Toxicity in wild type zebrafish embryos assessed as notochord at 50 ug/ml treated for 96 hrs post fertilization starting from 6 hrs post fertilization by inverted microscopic analysis relative to control; format: organism-based; details: in vivo
Danio rerio [8] = species: Danio rerio; experiment: Toxicity in wild type zebrafish embryos assessed as notochord at 15 ug/ml treated for 96 hrs post fertilization starting from 6 hrs post fertilization by inverted microscopic analysis relative to control; format: organism-based; details: in vivo
Danio rerio [9] = species: Danio rerio; experiment: Toxicity in wild type zebrafish embryos assessed as eyes at 50 ug/ml treated for 96 hrs post fertilization starting from 6 hrs post fertilization by inverted microscopic analysis relative to control; format: organism-based; details: in vivo
Danio rerio [10] = species: Danio rerio; experiment: Toxicity in wild type zebrafish embryos assessed as otoliths at 50 ug/ml treated for 96 hrs post fertilization starting from 6 hrs post fertilization by inverted microscopic analysis relative to control; format: organism-based; details: in vivo
Danio rerio [11] = species: Danio rerio; experiment: Toxicity in wild type zebrafish embryos assessed as otoliths at 15 ug/ml treated for 96 hrs post fertilization starting from 6 hrs post fertilization by inverted microscopic analysis relative to control; format: organism-based; details: in vivo
Danio rerio [12] = experiment: Toxicity in wild type zebrafish embryos assessed as pericardial edema at 50 ug/ml treated for 96 hrs post fertilization starting from 6 hrs post fertilization by inverted microscopic analysis relative to control; format: organism-based; details: in vivo
Danio rerio [13] = experiment: Toxicity in wild type zebrafish embryos assessed as yolk edema at 50 ug/ml treated for 96 hrs post fertilization starting from 6 hrs post fertilization by inverted microscopic analysis relative to control; format: organism-based; details: in vivo
Danio rerio [14] = species: Danio rerio; experiment: Toxicity in wild type zebrafish embryos assessed as heart beat at 50 ug/ml treated for 96 hrs post fertilization starting from 6 hrs post fertilization by inverted microscopic analysis relative to control; format: organism-based; details: in vivo
Danio rerio [15] = species: Danio rerio; experiment: Toxicity in wild type zebrafish embryos assessed as blood circulation at 50 ug/ml treated for 96 hrs post fertilization starting from 6 hrs post fertilization by inverted microscopic analysis relative to control; format: organism-based; details: in vivo
Danio rerio [16] = species: Danio rerio; experiment: Toxicity in wild type zebrafish embryos assessed as blood circulation at 15 ug/ml treated for 96 hrs post fertilization starting from 6 hrs post fertilization by inverted microscopic analysis relative to control; format: organism-based; details: in vivo
Danio rerio [17] = species: Danio rerio; experiment: Toxicity in wild type zebrafish embryos assessed as unhatched embryo at 50 ug/ml treated for 96 hrs post fertilization starting from 6 hrs post fertilization by inverted microscopic analysis relative to control; format: organism-based; details: in vivo
Danio rerio [18] = species: Danio rerio; experiment: Toxicity in wild type zebrafish embryos assessed as unhatched embryo at 15 ug/ml treated for 96 hrs post fertilization starting from 6 hrs post fertilization by inverted microscopic analysis relative to control; format: organism-based; details: in vivo
Danio rerio [19] = species: Danio rerio; experiment: Toxicity in wild type zebrafish embryos assessed as head malformation at 20 ug/ml treated for 96 hrs post fertilization starting from 6 hrs post fertilization by inverted microscopic analysis relative to control; format: organism-based; details: in vivo
Danio rerio [20] = species: Danio rerio; experiment: Toxicity in wild type zebrafish embryos assessed as head malformation at 15 ug/ml treated for 96 hrs post fertilization starting from 6 hrs post fertilization by inverted microscopic analysis relative to control; format: organism-based; details: in vivo
Danio rerio [21] = species: Danio rerio; experiment: Toxicity in wild type zebrafish embryos assessed as skeletal deformities at 50 ug/ml treated for 96 hrs post fertilization starting from 6 hrs post fertilization by inverted microscopic analysis relative to control; format: organism-based; details: in vivo
Danio rerio [22] = species: Danio rerio; experiment: Toxicity in wild type zebrafish embryos assessed as skeletal deformities at 20 ug/ml treated for 96 hrs post fertilization starting from 6 hrs post fertilization by inverted microscopic analysis relative to control; format: organism-based; details: in vivo
Neutrophil = experiment: Anti-melanogenic activity in mpx:GFP transgenic zebrafish 24 hrs post fertilization embryo neutrophils assessed as decrease in pigmentation at 25 ug/ml; format: functional, cell-based; details: Danio rerio
Tyrosinase (Danio rerio) [23] = biological target: T1, Tyrosinase (Danio rerio) (UniProt A0A8M1PAD4); experiment: Inhibition of zebrafish embryo tyrosinase assessed as residual activity at 15 ug/ml after 48 hrs relative to control
T1 sequence (whole entry): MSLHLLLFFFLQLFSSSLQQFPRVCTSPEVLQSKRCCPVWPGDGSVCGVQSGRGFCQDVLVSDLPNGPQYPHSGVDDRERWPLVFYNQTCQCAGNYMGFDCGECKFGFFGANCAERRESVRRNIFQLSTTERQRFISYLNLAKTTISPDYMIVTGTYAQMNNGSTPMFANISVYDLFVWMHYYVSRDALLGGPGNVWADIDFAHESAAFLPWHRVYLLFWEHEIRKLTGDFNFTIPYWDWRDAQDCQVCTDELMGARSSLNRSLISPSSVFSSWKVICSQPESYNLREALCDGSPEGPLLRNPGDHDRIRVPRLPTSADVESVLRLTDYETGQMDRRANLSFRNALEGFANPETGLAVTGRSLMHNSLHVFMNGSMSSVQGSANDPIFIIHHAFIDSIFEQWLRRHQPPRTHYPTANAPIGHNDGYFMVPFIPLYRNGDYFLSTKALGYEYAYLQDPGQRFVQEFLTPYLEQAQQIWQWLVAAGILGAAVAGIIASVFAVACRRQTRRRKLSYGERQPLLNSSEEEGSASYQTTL

Tyrosinase (Danio rerio) [24] = biological target: T1, Tyrosinase (Danio rerio); experiment: Inhibition of zebrafish embryo tyrosinase assessed as residual activity at 10 ug/ml after 48 hrs relative to control
Tyrosinase [25] = biological target: T2, Tyrosinase (Danio rerio, UniProt A0A8M1PAD4); experiment: Inhibition of zebrafish embryo tyrosinase assessed as melanin production after 48 hrs
T2 sequence (A0A8M1PAD4 whole entry): T1 sequence (whole entry)

Tyrosinase [26] = biological target: T2, Tyrosinase; experiment: Inhibition of zebrafish embryo tyrosinase assessed as residual activity after 48 hrs
Tyrosinase (Danio rerio) [27] = biological target: T1, Tyrosinase (Danio rerio); experiment: Potency index, ratio of kojic acid IC50 to compound IC50 for zebrafish embryo tyrosinase assessed as melanin production
Tyrosinase (Danio rerio) [28] = biological target: T1, Tyrosinase (Danio rerio); experiment: Potency index, ratio of kojic acid IC50 to compound IC50 for zebrafish embryo tyrosinase assessed as residual activity
Tyrosinase (Danio rerio) [29] = biological target: T1, Tyrosinase (Danio rerio); experiment: Inhibition of zebrafish embryo tyrosinase assessed as melanin production at 5 ug/ml after 48 hrs relative to control; values are per cent of control
Tyrosinase (Danio rerio) [30] = biological target: T1, Tyrosinase (Danio rerio); experiment: Inhibition of zebrafish embryo tyrosinase assessed as melanin production at 20 ug/ml after 48 hrs relative to control; values are per cent of control
Tyrosinase (Danio rerio) [31] = biological target: T1, Tyrosinase (Danio rerio); experiment: Inhibition of zebrafish embryo tyrosinase assessed as melanin production at 10 ug/ml after 48 hrs relative to control; values are per cent of control

SMILES | Activity (Melanocyte [1]) | Activity (Melanocyte [2]) | Activity (Melanocyte [3]) | Activity (Danio rerio [4]) | Activity (Danio rerio [5]) | Activity (Danio rerio [6]) | Activity (Danio rerio [7]) | Activity (Danio rerio [8]) | Activity (Danio rerio [9]) | Activity (Danio rerio [10]) | Activity (Danio rerio [11]) | Activity (Danio rerio [12]) | Activity (Danio rerio [13]) | Activity (Danio rerio [14]) | Activity (Danio rerio [15]) | Activity (Danio rerio [16]) | Activity (Danio rerio [17]) | Activity (Danio rerio [18]) | Activity (Danio rerio [19]) | Activity (Danio rerio [20]) | other results
O=c1cc(-c2ccccc2)c2c(O)cc(O)cc2o1 | Active | Non-Toxic | Non-Toxic | 100% | 0% | 0% | 0% | 0% | 0% | 0% | 0% | 5% | 0% | 0% | 0% | 0% | 0% | 0% | 0% | 0% | Activity (Danio rerio [21]): 25%; Activity (Danio rerio [22]): 0%; Activity (Neutrophil): Active; Activity (Tyrosinase (Danio rerio) [23]): 76%; Activity (Tyrosinase (Danio rerio) [24]): 82%; IC50 (Tyrosinase [25]): 41.3 µM; IC50 (Tyrosinase [26]): 90.9 µM; Ratio IC50 (Tyrosinase (Danio rerio) [27]): 147; Ratio IC50 (Tyrosinase (Danio rerio) [28]): 86; melanin content % of control (Tyrosinase (Danio rerio) [29]): 63%; melanin content % of control (Tyrosinase (Danio rerio) [30]): 37%; melanin content % of control (Tyrosinase (Danio rerio) [31]): 48%
O=c1cc(-c2ccccc2)c2ccc(O)cc2o1 | Active | Non-Toxic | Non-Toxic | 100% | 0% | 0% | 0% | 0% | 0% | 0% | 0% | 0% | 0% | 0% | 0% | 0% | 0% | 0% | 0% | 0% | Activity (Danio rerio [21]): 0%; Activity (Danio rerio [22]): 0%; Activity (Neutrophil): Active; Activity (Tyrosinase (Danio rerio) [23]): 92%; Activity (Tyrosinase (Danio rerio) [24]): 97%; IC50 (Tyrosinase [25]): 103 µM; IC50 (Tyrosinase [26]): 205 µM; Ratio IC50 (Tyrosinase (Danio rerio) [27]): 62; Ratio IC50 (Tyrosinase (Danio rerio) [28]): 41; melanin content % of control (Tyrosinase (Danio rerio) [29]): 93%; melanin content % of control (Tyrosinase (Danio rerio) [30]): 61%; melanin content % of control (Tyrosinase (Danio rerio) [31]): 91%

Source: ChEMBL document CHEMBL4177616, “Potent anti-melanogenic activity and favorable toxicity profile of selected 4-phenyl hydroxycoumarins in the zebrafish model and the computational molecular modeling studies” (Bioorg Med Chem, 2017)
